In patent US10858335B2 (Rigel Pharmaceuticals, Inc., priority 2014, dated 2020):

system: GDF8 signaling (p-SMAD-3 (Ser423/425)); experiment: AlphaScreen SureFire SMAD3 (p-Ser423/425) assay, GDF8-stimulated cells (GDF pSMAD); assay type: cell-based; conditions: Mus musculus, MPC-11, GDF8-stimulated pSMAD3, MPC11; tested as the salt form given; read-out: GDF pSMAD (MPC11) (μM), inhibition of GDF8 signaling
From the text: Biological Example 1: AlphaScreen® SureFire® SMAD3 (p-Ser423/425) Assay
The p-SMAD-3 (Ser423/425) SureFire® assay has been designed to measure the phosphorylation of endogenous cellular p-SMAD-3 (Ser423/425) in cell lysates and is a system for the screening of both modulators of receptor activation (e.g. agonists and antagonists) as well as agents acting intracellularly, such as small molecule inhibitors of upstream events. The assay will measure p-SMAD-3 (Ser423/425) activation by either cloned or endogenous receptors, and can be applied to primary cells.
P-SMAD-3 (Ser423/425) SureFire® Assay Protocols
Step A: Preparation of Buffers
1× Lysis buffer: 1 ml of 5× Lysis buffer was diluted with 4 ml of sterile water. After dilution, excess 1× Lysis buffer can be frozen and thawed up to 5 times without loss in activity.
Activation buffer: The buffer was warmed slowly to 37° C. and gently mixed to re-suspend. Activation buffer can be stored at room temperature with no loss in activity.
Reaction buffer: The buffer was kept at 4° C. while in use.
AlphaScreen® Protein A IgG Kit: The kit was stored at 4° C. in the dark.
Reaction buffer+Activation buffer+AlphaScreen® Acceptor beads: Reaction buffer (40 parts), Activation Buffer (10 parts) and Acceptor beads (1 part) were mixed and the mixture was stored at room temperature and used the same day. Mixture was added to 384-well plates; excess mixture was discarded.
Dilution buffer+AlphaScreen® Donor beads: Dilution buffer (20 parts) and Donor beads (1 part) were mixed and the mixture was stored at room temperature and used the same day. Excess mixture was discarded.
Assay control samples: After reconstitution in 250 μl of water, lysates were at −20° C. in single use aliquots.
Step B: Preparation of Samples and Cells
96-well Assay Protocol for 293FT and RMS13 adherent cells can be carried out manually or in high throughput with liquid handling robots.
The cells (80 μL of cells for 96 well plates) were plated in collagen coated tissue culture plates in RPMI or FreeStyle medium (Invitrogen) and incubated overnight. For manual analysis, 6 plates for GDF8, 6 plates for TGFβ, and optionally 6 plates for AlkSca(ALK5 constitutively active) were used.
The compound dilution plates were prepared as follows: 12 μL of DMSO was transferred into first column of 96-well plate, and 16 μL of DMSO was transferred into columns 2-12 of the 96-well plate. 12 μL of compound solution was transferred into first column of the DMSO-containing 96-well plate. Three-fold dilution was performed up to column 10 of the DMSO-containing 96-well plate.
Step C: Treatment and Analysis
The plate containing cells were treated with compounds for about 10 minutes, and then ligand was added. GDF8 or TGFb was added to plates to stimulate. 293FL cells were stimulated for 90 minutes at 37° C.; and RMS13 cells were stimulated for 60 minutes at 37° C. The medium was then removed from the cells, and 1× Lysis Buffer (about 25 μL) was added and the plate was gently agitated on plate shaker for 5-10 minutes.
The lysate (5 μL) was then placed into 384-well shallow plates avoiding the generation of bubbles. To this, the Reaction Buffer+Activation Buffer+AlphaScreen® Acceptor beads mixture (5 μL) was added. The plate was sealed with adhesive cover and shielded from light (e.g., with metal foil), and agitated gently on plate shaker for 2 hours at room temperature.
Dilution buffer+AlphaScreen® Donor beads (2 μL) was then added, and the plate was intubated on the plate shaker for an additional 1½ hours. After completion, the plate was read on Synergy-4 or Enspire plate reader, using AlphaScreen® pSMAD3® settings.
Representative results for inhibition of GDF8 signaling are shown in Table 2(data=GDF pSMAD (MPC11) (μM)): […]

SMILES | IC50
Fc1cc(F)c(F)c(-c2ncccc2-c2ccn3nccc3n2)c1 [compound 1052, 6-(2-(4-Fluoro-2,5-dimethylphenyl)pyridin-3-yl)-[,2,4]triazolo[1,5-a]pyridine] | 3.61 µM

same assay, conditions: Mus musculus, MPC-11, MPC11; GDF8-stimulated; p-SMAD3 AlphaScreen; read-out: GDF pSMAD (MPC11) (inhibition of GDF8 signaling)

SMILES | IC50
Cc1cc(-c2ncccc2-c2ccn3ncc(C(=O)NCCCN4CCCC4)c3c2)ccc1F [compound 675, 5-(2-(4-Fluoro-3-methylphenyl)pyridin-3-yl)-N-(3-(pyrrolidin-1-yl)propyl)pyrazolo[1,5-a]pyridine-3-carboxamide] | 0.227 µM
Fc1ccc(-c2ncccc2-c2ccc3nccn3n2)cc1Cl [compound 935, 6-(2-(3-Chloro-4-fluorophenyl)pyridin-3-yl)imidazo[1,2-b]pyridazine] | 0.192 µM
COCc1cnc(-c2ccc(F)c(C)c2)c(-c2ccc3nccnc3c2)c1 [compound 228, 6-(2-(4-Fluoro-3-methylphenyl)-5-(methoxymethyl)pyridin-3-yl)quinoxaline] | 9.76 µM
Cc1cc(-c2ncccc2-c2ccn3c(C(=O)O)ncc3c2)ccc1F [compound 258, 7-(2-(4-Fluoro-3-methylphenyl)pyridin-3-yl)imidazo[1,5-a]pyridine-3-carboxylic acid] | 1.27 µM
Cc1cc(-c2ncccc2-c2ccc3ncc(-c4ccc(S(N)(=O)=O)cc4)n3c2)ccc1F [compound 281, 4-(6-(2-(4-Fluoro-3-methylphenyl)pyridin-3-yl)imidazo[1,2-a]pyridin-3-yl)benzenesulfonamide] | 1.3 µM
Cc1cc(-c2ncc(NCc3ccc(-c4cccnc4)nc3)cc2-c2ccc3ncsc3c2)ccc1F [compound 328, N-([2,3′-Bipyridin]-5-ylmethyl)-5-(benzo[d]thiazol-6-yl)-6-(4-fluoro-3-methylphenyl)pyridin-3-amine] | 2.5 µM
Cc1cc(-c2ncccc2-c2ccc3ncnc(Nc4ccc(N5CCOCC5)cc4)c3c2)ccc1F [compound 408, 6-(2-(4-Fluoro-3-methylphenyl)pyridin-3-yl)-N-(4-morpholinophenyl)quinazolin-4-amine] | 0.673 µM
Cc1cnc2ccc(-c3cccnc3-c3cccc(C4CC4)c3)cn12 [compound 529, 6-(2-(3-Cyclopropylphenyl)pyridin-3-yl)-3-methylimidazo[1,2-a]pyridine] | 0.323 µM
Cc1cc(CNc2cnc(-c3ccc(F)c(C)c3)c(-c3ccc4ncsc4c3)c2)ccc1O [compound 372, 4-(((5-(Benzo[d]thiazol-6-yl)-6-(4-fluoro-3-methylphenyl)pyridin-3-yl)amino)methyl)-2-methylphenol] | 0.339 µM
Nc1ncnc2ccc(-c3cccnc3-c3cc(F)ccc3F)cc12 [compound 454, 6-(2-(2,5-Difluorophenyl)pyridin-3-yl)quinazolin-4-amine] | 0.926 µM
Cc1cc(-c2ncccc2-c2ccc3ncnc(Oc4cccc(C#N)c4)c3c2)ccc1F [compound 441, 3-((6-(2-(4-Fluoro-3-methylphenyl)pyridin-3-yl)quinazolin-4-yl)oxy)benzonitrile] | 1.16 µM
Cc1cccc(-c2ncccc2-c2ccc3ncn(C)c(=O)c3c2)c1 [compound 341, 3-Methyl-6-(2-(m-tolyl)pyridin-3-yl)quinazolin-4(3H)-one] | 0.26 µM
Cc1cc(-c2ncccc2-c2ccc3ncc(C(=O)NCCCN4CCN(C)CC4)n3c2)ccc1F [compound 591, 6-(2-(4-Fluoro-3-methylphenyl)pyridin-3-yl)-N-(3-(4-methylpiperazin-1-yl)propyl)imidazo[1,2-a]pyridine-3-carboxamide] | 0.333 µM
Cc1cccc(-c2ncccc2-c2ccc3ncccc3n2)c1 [compound 536, 2-(2-(m-Tolyl)pyridin-3-yl)-1,5-naphthyridine] | 0.404 µM
Cc1cc(-c2ncccc2-c2ccc3ncc(C(C)(C)O)n3c2)ccc1F [compound 599, 2-(6-(2-(4-Fluoro-3-methylphenyl)pyridin-3-yl)imidazo[1,2-a]pyridin-3-yl)propan-2-ol] | 3.88 µM
Nc1noc2ccc(-c3cccnc3-c3ccc(F)c(Cl)c3)cc12 [compound 796, 5-(2-(3-Chloro-4-fluorophenyl)pyridin-3-yl)benzo[d]isoxazol-3-amine] | 14 µM
[2H]C([2H])([2H])c1cccc(-c2ncccc2-c2ccc3ncc(C#N)n3c2)c1 [compound 601, 6-(2-(3-(Methyl-d3)phenyl)pyridin-3-yl)imidazo[1,2-a]pyridine-3-carbonitrile] | 0.141 µM
Cc1cc(-c2ncccc2-c2ccc3cnc(-c4ccncc4)n3c2)ccc1F [compound 282, 6-(2-(4-Fluoro-3-methylphenyl)pyridin-3-yl)-3-(pyridin-4-yl)imidazo[1,5-a]pyridine] | 19.4 µM
COc1ccnc2ccc(-c3cccnc3-c3cc(Cl)c(F)cc3F)cc12 [compound 842, 6-(2-(5-Chloro-2,4-difluorophenyl)pyridin-3-yl)-4-methoxyquinoline] | 17.4 µM

Results, then the compound that gave them:

IC50 | SMILES
20.7 µM | NC(=O)c1ccnc2ccc(-c3cccnc3-c3cc(Cl)c(F)cc3F)cc12 [compound 850, 6-(2-(5-Chloro-2,4-difluorophenyl)pyridin-3-yl)quinoline-4-carboxamide]
6.31 µM | Cc1cc(-c2ncccc2-c2ccc3ncc(C(=O)N4CCN(C)CC4)n3c2)ccc1F [compound 581, (6-(2-(4-Fluoro-3-methylphenyl)pyridin-3-yl)imidazo[1,2-a]pyridin-3-yl)(4-methylpiperazin-1-yl)methanone]
5.78 µM | Cc1c(-c2cccnc2-c2ccc(F)c(Cl)c2)ccc2ncnn12 [compound 810, 6-(2-(3-Chloro-4-fluorophenyl)pyridin-3-yl)-5-methyl-[1,2,4]triazolo[1,5-a]pyridine]
4 µM | Cc1cc(-c2ncccc2-c2ccc3ncnn3c2C)ccc1F [compound 809, 6-(2-(4-Fluoro-3-methylphenyl)pyridin-3-yl)-5-methyl-[1,2,4]triazolo[1,5-a]pyridine]
1.69 µM | O=c1[nH]cnc2ccc(-c3cccnc3-c3ccc(F)c(Cl)c3)nc12 [compound 960, 6-(2-(3-Chloro-4-fluorophenyl)pyridin-3-yl)pyrido[3,2-d]pyrimidin-4(3H)-one]
1.2 µM | Nc1ncnc2ccc(-c3cccnc3-c3cccc(Cl)c3Cl)cc12 [compound 498, 6-(2-(2,3-Dichlorophenyl)pyridin-3-yl)quinazolin-4-amine]
0.959 µM | CCN(CC)CCOc1ncnc2ccc(-c3cccnc3-c3ccc(F)c(Cl)c3)cc12 [compound 438, 2-((6-(2-(3-Chloro-4-fluorophenyl)pyridin-3-yl)quinazolin-4-yl)oxy)-N,N-diethylethan-1-amine]
0.808 µM | COc1cccc(-c2ncccc2-c2ccn3ncnc3c2)c1 [compound 880, 7-(2-(3-Methoxyphenyl)pyridin-3-yl)-[1,2,4]triazolo[1,5-a]pyridine]
0.363 µM | Oc1cccc(-c2ncccc2-c2ccc3[nH]ncc3c2)c1 [Compound 120, 3-(3-(1H-Indazol-5-yl)pyridin-2-yl)phenol]
0.29 µM | Fc1ccc(Cl)cc1-c1ncccc1-c1ccc2ncnn2n1 [compound 955, 6-(2-(5-Chloro-2-fluorophenyl)pyridin-3-yl)-[1,2,4]triazolo[1,5-b]pyridazine]
0.198 µM | Cc1cc(-c2ncc(NCc3nccs3)cc2-c2ccc3ncsc3c2)ccc1F [compound 326, 5-(Benzo[d]thiazol-6-yl)-6-(4-fluoro-3-methylphenyl)-N-(thiazol-2-ylmethyl)pyridin-3-amine]
0.0686 µM | Nc1ncnc2ccc(-c3cccnc3-c3cc(Cl)ccc3F)cc12 [compound 449, 6-(2-(5-Chloro-2-fluorophenyl)pyridin-3-yl)quinazolin-4-amine]
